Target: T1, Mitogen-activated protein kinase kinase kinase 5 (Homo sapiens, UniProt Q99683)
T1 sequence (Q99683 whole entry): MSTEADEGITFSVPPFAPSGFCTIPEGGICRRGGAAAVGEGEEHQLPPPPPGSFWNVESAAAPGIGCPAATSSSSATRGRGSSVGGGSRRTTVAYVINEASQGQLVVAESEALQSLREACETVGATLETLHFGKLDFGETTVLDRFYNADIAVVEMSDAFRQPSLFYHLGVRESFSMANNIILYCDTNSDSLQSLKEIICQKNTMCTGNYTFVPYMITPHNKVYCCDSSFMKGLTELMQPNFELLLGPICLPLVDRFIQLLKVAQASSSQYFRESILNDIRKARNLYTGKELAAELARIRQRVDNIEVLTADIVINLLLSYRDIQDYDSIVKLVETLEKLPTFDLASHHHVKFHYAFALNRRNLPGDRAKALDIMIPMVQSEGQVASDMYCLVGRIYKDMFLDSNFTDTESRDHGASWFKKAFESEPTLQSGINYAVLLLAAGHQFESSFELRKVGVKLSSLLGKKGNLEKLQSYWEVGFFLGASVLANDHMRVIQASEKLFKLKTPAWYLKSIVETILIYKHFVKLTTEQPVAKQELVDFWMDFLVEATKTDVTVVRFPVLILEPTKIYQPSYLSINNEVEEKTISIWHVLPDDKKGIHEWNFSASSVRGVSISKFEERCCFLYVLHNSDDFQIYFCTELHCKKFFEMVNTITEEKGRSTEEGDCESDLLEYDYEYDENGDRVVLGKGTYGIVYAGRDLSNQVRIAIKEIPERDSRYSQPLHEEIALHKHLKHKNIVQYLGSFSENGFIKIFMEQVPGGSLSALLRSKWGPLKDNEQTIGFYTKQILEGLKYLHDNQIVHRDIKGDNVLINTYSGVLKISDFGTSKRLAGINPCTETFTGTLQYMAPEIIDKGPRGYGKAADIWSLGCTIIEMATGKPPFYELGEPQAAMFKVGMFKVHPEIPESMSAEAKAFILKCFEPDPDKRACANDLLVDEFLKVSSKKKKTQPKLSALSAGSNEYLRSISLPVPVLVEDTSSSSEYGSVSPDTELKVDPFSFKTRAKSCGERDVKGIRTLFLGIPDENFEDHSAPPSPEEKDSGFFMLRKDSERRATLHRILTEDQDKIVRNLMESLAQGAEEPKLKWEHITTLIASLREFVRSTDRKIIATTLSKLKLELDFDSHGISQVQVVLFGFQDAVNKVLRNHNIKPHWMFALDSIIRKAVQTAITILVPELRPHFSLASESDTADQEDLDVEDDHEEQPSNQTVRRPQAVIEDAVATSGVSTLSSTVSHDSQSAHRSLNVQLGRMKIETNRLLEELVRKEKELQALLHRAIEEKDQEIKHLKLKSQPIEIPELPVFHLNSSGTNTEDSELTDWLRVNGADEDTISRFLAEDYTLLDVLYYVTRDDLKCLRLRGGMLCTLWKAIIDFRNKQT
Test: HTRF KinEASE Assay: ASK1 was purchased from Thermofisher (Catalogue #PV4011), ATP was purchased from Sigma (Catalogue #A7699), HTRF® KinEASE™ Assay System was obtained from Cisbio (Bedford, Mass.). ½ Area plate was purchased from Perkin Elmer (Catalogue ##6005560). HTRF® KinEASE™-STK is a generic method for measuring serine/threonine kinase activities using a time-resolved fluorescence resonance energy transfer (TR-FRET) immunoassay. The IC50 value for each compound was determined in the presence of compound (various concentration from 0 to 10 μM) and a fixed amount of ATP and peptide substrates. The test compound, 1 μM STK3 peptide substrate, and 5 μM of ASK1 kinase are incubated with kinase reaction buffer containing 50 mM HEPES Ph 7.5, 0.01% BRIJ-35, 10 mM MgCl2, and 1 mM EGTA for 30 minutes. 100 μM ATP is added to start kinase reaction and incubated for 3 hours. The STK3-antibody labeled with Eu3+-Cryptate and 125 nM streptavidin-XL665 are mixed in a single addition with stop reagents provided by the Cisbio kit used to stop the kinase reaction. Fluorescence is detected using an Envision Multilabeled 2014 reader from PerkinElmer. The Fluorescence is measured at 615 nm (Cryptate) and 665 nm (XL665) and a ratio of 665 nm/615 nm is calculated for each well. The resulting TR-FRET is proportional to the phosphorylation level. Staurosporine was used as the positive control. IC50 was determined by Xlfit 5.3.
Format: single protein

SMILES | IC50 [µM]
CCOC(=O)N1CCc2cc(OC)c(C(=O)Nc3cccc(-c4nnc5n4[C@H](C)CC5)n3)cc2C1 | < 0.00125
CCOC(=O)N1CCc2cc(OC)c(C(=O)Nc3cccc(-c4nnc5n4CCCC5)n3)cc2C1 | 0.01 to 0.1
CCOC(=O)N1CCc2cnc(C(=O)Nc3cccc(-c4nnc5n4CCCC5)n3)cc2C1 | > 1
CCOC(=O)N1CCc2cc(F)c(C(=O)Nc3cccc(-c4nnc5n4CCCC5)n3)cc2C1 | > 1
CCOC(=O)N1CCc2cc(OC)c(C(=O)Nc3cccc(-c4nnc5n4C(C)(C)CC5)n3)cc2C1 | < 0.00125

From ChEMBL document CHEMBL5729370 (2022)
